Results as given in US8329179B2, “Death domain containing receptor 4 antibodies and methods” (Human Genome Sciences, Inc., priority 1997, dated 2012).
“Also recorded” adds a separate entry of the source. Where a SMILES comes first, the peptide text is derived from it. The star is where a group is joined. Cbz = O=C(OCc1ccccc1)*; CH2F = FC*

How the values were obtained:
[1] = test system: DR4-induced apoptosis; assay: Cell death assay: DR4-induced apoptosis in cells transiently transfected with a DR4 expressing construct, with death protease inhibitors; assay type: cell-based, human; details: FIG. 5C
[2] = test system: DR4-induced apoptosis in MCF7 human breast carcinoma cells and 293 human embryonic kidney cells; assay: DR4-induced apoptosis cell death assay (transient transfection, X-Gal staining); assay type: cell-based; details: z-VAD-fmk added at 10 μM, 5 hrs after transfection; cells stained 32 hours following transfection
Experimental: Overexpression of Fas/APO-1 and TNFR-1 in mammalian cells mimics receptor activation (M. Muzio, et al., Cell 85, 817-827 (1996); M. P. Boldin, et al, Cell 85, 803-815 (1996)). Thus, this system was utilized to study the functional role of DR4. Transient expression of DR4 in MCF7 human breast carcinoma cells and 293 human embryonic kidney cells induced rapid apoptosis.
Cell death assays are performed essentially as previously described (A. M. Chinnaiyan, et al., Cell 81, 505-12 (1995); M. P. Boldin, et al, J Biol Chem 270, 7795-8 (1995); F. C. Kischkel, et al., EMBO 14, 5579-5588 (1995); A. M. Chinnaiyan, et al., J Biol Chem 271, 4961-4965 (1996)). Briefly, MCF-7 human breast carcinoma clonal cell lines stably transfected with either vector alone or a CrmA expression construct (M. Tewari, et al., J Biol Chem 270, 3255-60 (1995)), are transiently transfected with pCMV-DR4-galactosidase (or pCMV-DR4-galactosidase (lacking the death domain)) in the presence of a ten-fold excess of pcDNA3 expression constructs encoding the indicated proteins using lipofectamine (GIBCO-BRL). 293 cells are likewise transfected using the CaPO4 method. The ICE family inhibitor z-VAD-fmk (Enzyme Systems Products, Dublin, Calif.) is added to the cells at a concentration of 10 μM, 5 hrs after transfection. […]

[3] = test system: TRAIL-induced apoptosis in MCF7 cells; assay: Blocking of TRAIL-induced apoptosis in MCF7 cells by receptor-Fc fusions; assay type: cell-based, human; details: FIG. 6A

| Molecule | Blocking of DR4-induced apoptosis [1] | Blocking of DR4-induced apoptosis ([1]; listed as z-VAD-fink) | DR4-induced apoptosis [2] | Blocking of the ability of TRAIL to induce apoptosis [3] |
| --- | --- | --- | --- | --- |
| COC(=O)C[C@H](NC(=O)[C@H](C)NC(=O)[C@@H](NC(=O)OCc1ccccc1)C(C)C)C(=O)CF [z-VAD-fmk] (Cbz-Val-Ala-Asp(OMe)-CH2F) | inhibit the apoptotic action of DR4; also recorded: efficiently blocked | blocked | blocked |  |
| CD95-Fc: extracellular domain of CD-95 expressed as Fc fusion |  |  |  | not influenced |
